Legend:
Format in all cases: binding, human
[1] = test system: twelve individual novel WW domains of WWP1, WWP2, WWP3 and WWP4; experiment: ELISA based cross affinity mapping, whole panel of novel WW domains; conditions: biotinylated peptide-streptavidin/alkaline phosphatase complex, GST fusion proteins
Method: (§1) The 16 day mouse embryo cDNA expression library was diluted 1:1000 in SM solution (100 mM NaCl, 8 mM MgSOv4, 50 mM Tris HCl pH 7.5, 0.01% gelatin). To a sterile test tube, 2 μl of diluted mouse embryo library, 100 μl of 10 mM CaCl2, 100 μl of 10 mM MgCl2 and 100 μl of BL21(DE3)pLysE bacterial cells (grown overnight) were added and incubated for 30 minutes at 37° C. The contents of the tube were mixed with 3 ml of 0.6% top agarose, containing […] chloramphenicol, and poured onto a 2xYT plate (90 mm diameter). For a large primary screen, 10–20 plates were prepared with 3×10^4 pfu per plate. After 6 hours incubation at 37° C., a nitrocellulose filter soaked in 10 mM isopropyl-β-D-thiogalactopyranoside (IPTG) was overlaid on each plate and incubated 3–6 hours at 37° C. Before the filters were removed from the plates, they were marked asymmetrically with India ink in a 18 gauge syringe needle. The plates were stored at 4° C. until ready for the secondary screen. The filters were washed with PBS (137 mM NaCl, 2.7 mM KCl, 4.3 mM Na2HPO4, 1.4 mM KH2PO4)-0.05% Triton X-100 three times at room temperature, 15 minutes each wash, and then placed in a plastic bag containing non-specific blocking solution (PBS-2% BSA) for one hour. In the meantime, 1 ml of 1 mM biotinylated peptide in PBS-0.1% Tween 20 was added to 20 ml of 1 mg/ml streptavidin-alkaline phosphatase (SA-AP) in PBS-0.1% Tween 20 and incubated at 4° C. for 30 minutes. […] Excess biotin-binding sites would then be blocked by addition of 500 pmol biotin. […] Ten μl of 0.1 mM biotin would then be added, and the solution incubated for an additional 15 min.
(§2) To determine the ligand preferences of the novel WW omain-containing clones described in Sections 6.1 and 6.1.1, as well as addressing the issue of whether peptides containing PPPPY (SEQ ID NO:3)-like motifs derived from a variety of proteins could also serve as recognition units and bind to these clones, a cross affinity mapping experiment was performed (FIGS. 15A–D). The peptides shown in FIGS. 15A–D were synthesized, biotinylated, complexed with streptavidin-alkaline phosphatase, and tested in an ELISA based assay for their ability to bind to the twelve individual novel WW domains of WWP1, WWP2, WWP3 and WWP4 which were expressed as GST fusion proteins. The ELISA based cross-affinity experiments were performed essentially as described by Sparks et al. (1996, Proc. Natl. Acad. Sci. 93:1540–1544) with the following modifications. Briefly, microtiter wells were coated with 1–5 μg of fusion protein in 100 mM NaHCO3, blocked with SuperBlock TBS (Pierce) and washed four times with PBS, 0.05% Tween 20. Specific peptide-streptavidin/alkaline phosphatase complexes were added as above and unbound complexes washed five times with PBS, 0.05% Tween 20. Following addition of PNP substrate (p-nitrophenyl phosphate, Kirkegard & Perry Labs), peptide binding was quantitated after 30 min. at O.D. 405 nm. Relative binding measurements from three independent determinations were assigned to a scale as follows: O.D. units 0–0.5=(−), 0.5–1.0=(+), 1.0–2.0=(++), 2.0–3.0=(+++), >3.0=(++++). Peptide binding to human Fyn and Lyn SH3 and SH2 domains was assessed by a filter binding assay (see Section 6.1 and Sparks et al., 1996, Proc. Natl. Acad. Sci 93:1540–1544). Peptide sequences used in cross-affinity experiments correspond to segments of the following genes: RasGap (Database accession # P20936), AP-2 (P05549), p53BP-2 (U09582), IL-6Rα (P22272), voltage-gated chloride channel CLCN5 (X91906), IL-2Rγ (D111086), RSV (D10652), HTLV-1 (D13784), β-dystroglycan (L19711), Formin (X53599), amiloride-sensitive epithelial Na^+ channel ENaCα (P37089), ENaCβ (X87159) and ENaCγ (X87160), muscarinic acetylcholine receptor M4 AChR (P08173), and c-Abl (P00522). Src and Crk SH3 binding peptide sequences were derived from a phage display random peptide library screen (Section 6.1 and Sparks et al., 1996, Proc. Natl. Acad. Sci. 93:1540–1544).

[2] = test system: WW domains of WWP4 expressed as GST fusion proteins; experiment: ELISA based cross affinity mapping, WW domains of WWP4; conditions: biotinylated peptide-streptavidin/alkaline phosphatase complex; GST fusion proteins; ELISA
Method: as §1, §2

[3] = test system: WW domains of WWP1 expressed as GST fusion proteins; experiment: ELISA based cross affinity mapping, WW domains of WWP1; conditions: biotinylated peptide-streptavidin/alkaline phosphatase complex; GST fusion proteins; ELISA
Method: as §1, §2

[4] = test system: WW domains of WWP2 expressed as GST fusion proteins; experiment: ELISA based cross affinity mapping, WW domains of WWP2; conditions: biotinylated peptide-streptavidin/alkaline phosphatase complex; GST fusion proteins; ELISA
Method: as §1, §2

Substance | binding to the novel WW domains (WWP1, WWP2, WWP3, WWP4 panel) [1] | binding to WW domains of WWP4 [2] | binding to WW domains of WWP1 [3] | binding to WW domains of WWP2 [4]
AP-2: peptide with PPPPY-like motif from AP-2 transcription factor (P05549) (PYFPPPYQPI) | bound to WW domains from one or more of the four novel clones |  |  | 
ENaCβ-P616L: mutant ENaCβ peptide, Liddle syndrome missense substitution, PPPNY to PPLNY (PGTPPLNYDSLRL) |  | do not bind | do not bind | do not bind
ENaCβ-Y618H: mutant ENaCβ peptide, Liddle syndrome missense substitution, PPPNY to PPPNH (PGTPPPNHDSLRL) |  | do not bind | do not bind | do not bind
IL-2R: peptide from interleukin receptor IL-2R (YWAPPCYTLK) | bound to WW domains from one or more of the four novel clones |  |  | 
IL-6R: peptide from interleukin receptor IL-6R (TTSPPPPPYS) | bound to WW domains from one or more of the four novel clones |  |  | 
RasGap: peptide with PPPPY-like motif from a segment of RasGap (P20936) (PLPPPPYLPP) | bound to WW domains from one or more of the four novel clones |  |  | 
WBP-2A-Pro3: WBP-2A peptide with substitution of the second proline (SGSGYVQPPAPPYPGPM) |  | is not |  | is not
bWW060: alanine substitution variant of the tyrosine residue of the PPPPY-like domain of WWP4 (NRLDLPPAETFED) |  | abolished binding activity | abolished binding activity | abolished binding activity
bWW062: alanine substitution variant of the tyrosine residue of the PPPPY-like domain of WWP2 (NRLDLPPAKSYEQ) |  | abolished binding activity | abolished binding activity | abolished binding activity
p53BP-2: peptide with PPPPY-like motif from p53 binding protein-2 (U09582) (YPPYPPPPYPSG) | bound to WW domains from one or more of the four novel clones |  |  | 
β dystroglycan-2: second peptide from dystrophin interacting molecule β-dystroglycan (YRSPPPYVPP) | bound to WW domains from one or more of the four novel clones |  |  | 
β-dystroglycan-1: peptide from dystrophin interacting molecule β-dystroglycan (L19711) (PLPPPEYPNQ) | bound to WW domains from one or more of the four novel clones |  |  | 

Reference: patent publication US7279548B2, “Identification and isolation of novel polypeptides having WW domains and methods of using same” (Cytogen Corporation, priority 1996, dated 2007)
